# Measured values from doi:10.1101/2023.11.24.568596v1 (biorxiv, 2023).
# What was measured:
# Settings in all cases: binder
# CK2a2 = CK2a2 (Homo sapiens, UniProt P19784)
# DRAK1 = biological target: T1, DRAK1 (Homo sapiens, UniProt Q9UEE5)
# T1 sequence (Q9UEE5 1-414): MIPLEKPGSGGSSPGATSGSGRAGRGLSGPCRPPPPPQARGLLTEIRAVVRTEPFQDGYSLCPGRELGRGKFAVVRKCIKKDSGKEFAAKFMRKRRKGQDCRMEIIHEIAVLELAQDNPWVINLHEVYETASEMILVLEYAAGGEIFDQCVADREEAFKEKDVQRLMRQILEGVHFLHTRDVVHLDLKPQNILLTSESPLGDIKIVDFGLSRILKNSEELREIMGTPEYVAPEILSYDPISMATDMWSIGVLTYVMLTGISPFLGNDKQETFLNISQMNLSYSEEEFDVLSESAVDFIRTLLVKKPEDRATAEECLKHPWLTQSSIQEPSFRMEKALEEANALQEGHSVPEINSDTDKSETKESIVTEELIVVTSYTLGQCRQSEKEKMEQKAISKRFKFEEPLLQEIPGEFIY
# DAPK1 = DAPK1 (Homo sapiens, UniProt P53355)
# CDKL1 = CDKL1 (Homo sapiens, UniProt Q00532)
# JNK2 = JNK2 (Homo sapiens, UniProt P45984)
# OSR1 = OSR1 (Homo sapiens, UniProt O95747)
# MAP3K5 = biological target: T2, MAP3K5 (Homo sapiens, UniProt Q99683)
# T2 sequence (Q99683 1-1374): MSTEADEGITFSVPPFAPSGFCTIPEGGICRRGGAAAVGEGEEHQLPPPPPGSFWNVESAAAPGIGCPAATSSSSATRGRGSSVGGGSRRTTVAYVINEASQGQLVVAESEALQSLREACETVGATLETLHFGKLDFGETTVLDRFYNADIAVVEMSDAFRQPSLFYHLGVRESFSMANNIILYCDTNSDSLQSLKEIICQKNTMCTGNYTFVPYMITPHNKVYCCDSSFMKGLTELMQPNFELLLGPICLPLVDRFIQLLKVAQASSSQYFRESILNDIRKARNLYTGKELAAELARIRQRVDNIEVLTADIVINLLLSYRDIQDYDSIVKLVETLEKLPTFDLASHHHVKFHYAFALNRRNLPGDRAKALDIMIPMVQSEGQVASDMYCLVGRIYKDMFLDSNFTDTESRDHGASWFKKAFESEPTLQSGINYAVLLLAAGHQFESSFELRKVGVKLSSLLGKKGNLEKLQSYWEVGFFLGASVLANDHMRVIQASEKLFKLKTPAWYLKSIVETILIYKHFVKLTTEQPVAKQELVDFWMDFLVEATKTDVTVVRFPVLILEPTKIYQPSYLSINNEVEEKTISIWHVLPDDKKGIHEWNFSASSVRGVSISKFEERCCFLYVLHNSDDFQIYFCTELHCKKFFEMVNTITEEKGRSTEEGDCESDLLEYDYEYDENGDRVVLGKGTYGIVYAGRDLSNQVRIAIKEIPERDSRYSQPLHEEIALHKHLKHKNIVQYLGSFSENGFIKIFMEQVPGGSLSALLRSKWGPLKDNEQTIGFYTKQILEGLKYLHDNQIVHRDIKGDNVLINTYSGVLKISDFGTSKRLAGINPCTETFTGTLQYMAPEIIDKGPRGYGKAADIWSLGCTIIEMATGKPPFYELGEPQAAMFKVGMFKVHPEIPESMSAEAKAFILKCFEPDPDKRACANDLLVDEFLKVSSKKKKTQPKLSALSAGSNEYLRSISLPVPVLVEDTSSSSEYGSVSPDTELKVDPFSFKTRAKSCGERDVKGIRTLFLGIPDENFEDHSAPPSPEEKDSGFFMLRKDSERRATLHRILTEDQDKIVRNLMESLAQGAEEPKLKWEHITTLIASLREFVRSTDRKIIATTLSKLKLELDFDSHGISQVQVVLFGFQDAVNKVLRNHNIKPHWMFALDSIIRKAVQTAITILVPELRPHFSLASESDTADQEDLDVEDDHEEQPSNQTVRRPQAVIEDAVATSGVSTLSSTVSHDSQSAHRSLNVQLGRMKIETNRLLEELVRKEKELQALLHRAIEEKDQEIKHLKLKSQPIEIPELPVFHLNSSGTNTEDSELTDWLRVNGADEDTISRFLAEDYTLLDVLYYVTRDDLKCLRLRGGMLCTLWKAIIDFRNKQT
# EphA4 = EphA4 (Homo sapiens, UniProt P54764)
# AurA = biological target: T3, AurA (Homo sapiens, UniProt O14965)
# T3 sequence (O14965 1-403): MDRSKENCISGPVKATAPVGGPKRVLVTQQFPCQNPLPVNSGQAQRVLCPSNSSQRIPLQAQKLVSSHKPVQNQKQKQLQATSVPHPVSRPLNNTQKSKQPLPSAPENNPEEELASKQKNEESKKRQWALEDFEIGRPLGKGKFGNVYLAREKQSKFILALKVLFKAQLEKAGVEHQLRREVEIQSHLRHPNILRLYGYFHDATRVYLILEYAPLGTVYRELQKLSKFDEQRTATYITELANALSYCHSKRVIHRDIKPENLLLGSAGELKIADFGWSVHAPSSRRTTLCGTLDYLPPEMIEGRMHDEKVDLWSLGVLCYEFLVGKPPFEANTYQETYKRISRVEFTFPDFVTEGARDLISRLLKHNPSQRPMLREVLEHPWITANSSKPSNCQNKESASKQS
# MELK = MELK (Homo sapiens, UniProt Q14680)
# MELK, sequence (Q14680 whole entry): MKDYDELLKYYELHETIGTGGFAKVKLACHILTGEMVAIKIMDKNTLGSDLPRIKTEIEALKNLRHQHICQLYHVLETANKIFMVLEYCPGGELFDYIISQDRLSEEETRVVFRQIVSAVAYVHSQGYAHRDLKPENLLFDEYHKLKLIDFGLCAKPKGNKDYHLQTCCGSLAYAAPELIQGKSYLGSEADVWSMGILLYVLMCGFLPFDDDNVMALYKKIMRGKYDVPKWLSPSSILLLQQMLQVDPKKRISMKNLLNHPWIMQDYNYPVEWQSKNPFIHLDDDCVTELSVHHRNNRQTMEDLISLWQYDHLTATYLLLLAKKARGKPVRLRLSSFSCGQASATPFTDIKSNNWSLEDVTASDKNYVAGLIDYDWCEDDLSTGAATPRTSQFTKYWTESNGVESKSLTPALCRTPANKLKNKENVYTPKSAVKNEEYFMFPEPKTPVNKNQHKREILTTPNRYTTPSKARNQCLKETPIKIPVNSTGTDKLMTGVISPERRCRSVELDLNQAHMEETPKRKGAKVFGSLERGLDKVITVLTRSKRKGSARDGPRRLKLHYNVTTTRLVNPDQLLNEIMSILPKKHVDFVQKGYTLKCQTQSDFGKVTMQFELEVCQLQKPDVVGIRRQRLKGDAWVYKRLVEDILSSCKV
# CDKL1, sequence (Q00532 whole entry): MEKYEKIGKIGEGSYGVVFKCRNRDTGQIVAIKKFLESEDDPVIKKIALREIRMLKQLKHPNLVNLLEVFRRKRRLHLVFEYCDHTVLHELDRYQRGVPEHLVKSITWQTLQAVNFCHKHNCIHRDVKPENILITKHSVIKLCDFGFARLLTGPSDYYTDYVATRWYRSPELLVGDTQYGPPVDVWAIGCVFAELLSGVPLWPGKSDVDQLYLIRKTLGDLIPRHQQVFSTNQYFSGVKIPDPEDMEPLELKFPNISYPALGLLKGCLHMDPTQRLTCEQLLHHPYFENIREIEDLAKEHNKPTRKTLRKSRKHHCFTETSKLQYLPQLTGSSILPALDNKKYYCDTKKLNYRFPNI
# CK2a2, sequence (P19784 whole entry): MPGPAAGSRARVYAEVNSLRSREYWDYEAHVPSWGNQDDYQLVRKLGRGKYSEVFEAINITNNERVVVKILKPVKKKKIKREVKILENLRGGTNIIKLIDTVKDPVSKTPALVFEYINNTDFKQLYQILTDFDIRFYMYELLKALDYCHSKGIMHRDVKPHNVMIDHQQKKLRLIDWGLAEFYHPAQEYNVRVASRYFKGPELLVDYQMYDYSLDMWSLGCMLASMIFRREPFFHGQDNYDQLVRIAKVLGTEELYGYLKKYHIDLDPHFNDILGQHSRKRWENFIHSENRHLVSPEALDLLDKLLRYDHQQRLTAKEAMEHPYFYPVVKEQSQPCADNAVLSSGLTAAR
# EphA4, sequence (P54764 whole entry): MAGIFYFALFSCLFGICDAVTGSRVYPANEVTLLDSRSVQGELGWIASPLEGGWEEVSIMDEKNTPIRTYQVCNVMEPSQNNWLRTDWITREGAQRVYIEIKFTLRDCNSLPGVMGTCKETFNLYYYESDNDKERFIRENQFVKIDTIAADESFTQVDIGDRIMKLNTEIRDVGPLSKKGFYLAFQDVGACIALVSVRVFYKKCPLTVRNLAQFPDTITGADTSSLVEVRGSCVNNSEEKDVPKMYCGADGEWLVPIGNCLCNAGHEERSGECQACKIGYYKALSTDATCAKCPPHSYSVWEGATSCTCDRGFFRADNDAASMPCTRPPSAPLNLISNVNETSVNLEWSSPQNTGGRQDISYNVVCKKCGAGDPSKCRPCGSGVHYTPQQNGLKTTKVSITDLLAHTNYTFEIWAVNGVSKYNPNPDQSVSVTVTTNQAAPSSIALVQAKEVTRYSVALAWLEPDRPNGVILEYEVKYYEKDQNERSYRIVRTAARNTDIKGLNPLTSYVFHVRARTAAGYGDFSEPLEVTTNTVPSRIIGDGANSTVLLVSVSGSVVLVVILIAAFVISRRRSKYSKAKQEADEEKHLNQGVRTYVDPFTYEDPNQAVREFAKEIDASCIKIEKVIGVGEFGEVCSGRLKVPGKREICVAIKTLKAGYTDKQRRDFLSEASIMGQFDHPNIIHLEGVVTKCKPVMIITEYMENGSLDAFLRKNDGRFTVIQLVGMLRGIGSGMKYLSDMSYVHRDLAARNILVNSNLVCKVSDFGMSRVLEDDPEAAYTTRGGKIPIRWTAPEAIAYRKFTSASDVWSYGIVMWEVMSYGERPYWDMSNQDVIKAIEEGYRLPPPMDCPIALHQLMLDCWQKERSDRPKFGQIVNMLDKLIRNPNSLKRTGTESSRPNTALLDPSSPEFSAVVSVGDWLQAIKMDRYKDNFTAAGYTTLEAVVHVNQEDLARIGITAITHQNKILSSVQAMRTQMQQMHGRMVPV
# OSR1, sequence (O95747 whole entry): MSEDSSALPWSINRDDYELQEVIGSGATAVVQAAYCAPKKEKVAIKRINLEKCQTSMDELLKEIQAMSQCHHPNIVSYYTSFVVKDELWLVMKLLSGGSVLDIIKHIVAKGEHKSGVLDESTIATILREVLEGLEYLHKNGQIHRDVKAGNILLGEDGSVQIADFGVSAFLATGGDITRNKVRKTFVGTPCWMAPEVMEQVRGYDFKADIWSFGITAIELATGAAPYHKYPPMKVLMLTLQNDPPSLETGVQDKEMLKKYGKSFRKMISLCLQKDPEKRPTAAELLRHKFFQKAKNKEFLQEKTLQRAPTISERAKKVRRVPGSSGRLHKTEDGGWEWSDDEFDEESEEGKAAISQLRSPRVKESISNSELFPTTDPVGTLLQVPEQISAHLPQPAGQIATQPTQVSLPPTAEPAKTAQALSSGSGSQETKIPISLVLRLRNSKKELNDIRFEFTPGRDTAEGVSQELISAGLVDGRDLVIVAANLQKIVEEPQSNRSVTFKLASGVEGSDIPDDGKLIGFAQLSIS
# JNK2, sequence (P45984 whole entry): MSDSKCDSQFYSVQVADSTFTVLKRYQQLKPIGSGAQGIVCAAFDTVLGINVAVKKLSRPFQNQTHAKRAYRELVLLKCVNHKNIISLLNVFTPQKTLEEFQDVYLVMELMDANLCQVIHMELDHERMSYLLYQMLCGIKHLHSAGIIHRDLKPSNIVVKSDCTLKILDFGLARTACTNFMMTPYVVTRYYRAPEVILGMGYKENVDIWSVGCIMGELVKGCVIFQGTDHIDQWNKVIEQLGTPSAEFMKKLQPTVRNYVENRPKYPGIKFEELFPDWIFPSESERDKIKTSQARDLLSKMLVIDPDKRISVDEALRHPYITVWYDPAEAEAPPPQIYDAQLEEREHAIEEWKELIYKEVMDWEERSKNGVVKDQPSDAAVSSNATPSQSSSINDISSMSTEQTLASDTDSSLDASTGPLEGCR
# DAPK1, sequence (P53355 whole entry): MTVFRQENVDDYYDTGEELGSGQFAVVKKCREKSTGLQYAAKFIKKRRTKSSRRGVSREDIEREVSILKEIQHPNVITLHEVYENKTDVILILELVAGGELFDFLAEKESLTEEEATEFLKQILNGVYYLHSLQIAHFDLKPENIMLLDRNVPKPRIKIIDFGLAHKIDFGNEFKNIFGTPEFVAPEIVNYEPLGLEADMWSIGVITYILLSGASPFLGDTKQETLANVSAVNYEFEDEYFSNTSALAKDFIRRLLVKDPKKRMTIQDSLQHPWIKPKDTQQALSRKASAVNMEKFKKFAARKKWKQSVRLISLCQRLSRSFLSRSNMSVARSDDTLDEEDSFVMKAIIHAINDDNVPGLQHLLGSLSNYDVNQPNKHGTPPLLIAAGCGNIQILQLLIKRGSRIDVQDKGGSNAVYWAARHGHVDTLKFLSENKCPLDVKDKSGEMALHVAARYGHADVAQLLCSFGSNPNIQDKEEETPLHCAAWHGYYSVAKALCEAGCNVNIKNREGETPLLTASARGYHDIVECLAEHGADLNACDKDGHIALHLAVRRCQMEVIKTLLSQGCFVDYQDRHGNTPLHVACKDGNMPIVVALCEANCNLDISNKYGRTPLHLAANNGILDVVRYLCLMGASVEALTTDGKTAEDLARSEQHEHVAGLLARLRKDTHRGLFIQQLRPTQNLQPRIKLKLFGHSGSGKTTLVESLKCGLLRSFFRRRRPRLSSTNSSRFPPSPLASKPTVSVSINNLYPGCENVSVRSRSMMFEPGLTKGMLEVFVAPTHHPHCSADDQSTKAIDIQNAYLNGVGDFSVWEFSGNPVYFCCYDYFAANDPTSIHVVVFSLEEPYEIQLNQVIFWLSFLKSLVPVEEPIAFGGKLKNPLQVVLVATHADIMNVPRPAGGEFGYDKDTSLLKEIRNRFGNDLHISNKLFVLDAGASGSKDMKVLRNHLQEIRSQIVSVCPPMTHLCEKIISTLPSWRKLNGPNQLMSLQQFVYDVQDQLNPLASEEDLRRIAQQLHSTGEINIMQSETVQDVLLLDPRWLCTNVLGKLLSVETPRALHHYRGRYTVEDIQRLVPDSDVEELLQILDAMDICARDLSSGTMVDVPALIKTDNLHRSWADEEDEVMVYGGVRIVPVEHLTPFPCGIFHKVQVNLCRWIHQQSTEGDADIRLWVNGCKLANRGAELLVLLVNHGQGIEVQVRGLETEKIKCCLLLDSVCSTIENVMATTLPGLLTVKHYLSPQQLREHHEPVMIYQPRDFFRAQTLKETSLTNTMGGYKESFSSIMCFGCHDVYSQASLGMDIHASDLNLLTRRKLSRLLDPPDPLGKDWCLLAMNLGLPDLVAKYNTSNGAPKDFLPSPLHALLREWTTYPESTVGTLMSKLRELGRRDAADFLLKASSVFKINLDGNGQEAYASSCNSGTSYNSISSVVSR
smiles,measurement,setting,value
"Cc1cccc(-c2ccc(-c3cc4cnc(NCCCN5CCNCC5)nc4n(CCCCN)c3=O)c(Cl)c2)n1 [compound 29, 8-(4-Aminobutyl)-6-(2-chloro-4-(6-methylpyridin-2-yl)phenyl)-2-((3-(piperazin-1-yl)propyl)amino)pyrido[2,3-d]pyrimidin-7(8H)-one]",ΔTm 29,CK2a2,-1.6 °C
same,ΔTm 29,DRAK1,1.3 °C
same,ΔTm 29,DAPK1,-0.9 °C
same,ΔTm 29,CDKL1,0.5 °C
same,ΔTm 29,JNK2,-0.1 °C
same,ΔTm 29,OSR1,0.3 °C
same,ΔTm 29,MAP3K5,9.6 °C
same,ΔTm 29,EphA4,2.1 °C
same,ΔTm 29,AurA,-2.1 °C
same,ΔTm 29,MELK,6.5 °C
"Cc1cccc(-c2ccc(-c3cc4cnc(NCCCN5CCCC5=O)nc4n(CCCCN)c3=O)c(Cl)c2)n1 [compound 27, MR30]",ΔTm MR30 (27),CK2a2,-6.3 °C
same,ΔTm MR30 (27),DRAK1,-0.4 °C
same,ΔTm MR30 (27),DAPK1,-1.2 °C
same,ΔTm MR30 (27),CDKL1,0.9 °C
same,ΔTm MR30 (27),JNK2,0.7 °C
same,ΔTm MR30 (27),OSR1,-1.1 °C
same,ΔTm MR30 (27),MAP3K5,9.2 °C
same,ΔTm MR30 (27),EphA4,2.0 °C
same,ΔTm MR30 (27),AurA,-0.3 °C
same,ΔTm MR30 (27),MELK,5.8 °C
"Cc1cccc(-c2ccc(-c3cc4cnc(Nc5ccc(O)cc5)nc4n(CCCCN)c3=O)c(Cl)c2)n1 [compound 31, 8-(4-Aminobutyl)-6-(2-chloro-4-(6-methylpyridin-2-yl)phenyl)-2-((4-hydroxyphenyl)amino) pyrido[2,3-d]pyrimidin-7(8H)-one]",ΔTm 31,CK2a2,-0.9 °C
same,ΔTm 31,DRAK1,4.5 °C
same,ΔTm 31,DAPK1,-0.6 °C
same,ΔTm 31,CDKL1,2.1 °C
same,ΔTm 31,JNK2,4.2 °C
same,ΔTm 31,OSR1,3.1 °C
same,ΔTm 31,MAP3K5,12.3 °C
same,ΔTm 31,EphA4,4.4 °C
same,ΔTm 31,AurA,4.4 °C
same,ΔTm 31,MELK,6.5 °C
"Cc1cccc(-c2ccc(-c3cc4cnc(Nc5ccc(CCCO)cc5)nc4n(CCCCN)c3=O)c(Cl)c2)n1 [compound 30, 8-(4-Aminobutyl)-6-(2-chloro-4-(6-methylpyridin-2-yl)phenyl)-2-((4-(3-hydroxypropyl)phenyl)amino)pyrido[2,3-d]pyrimidin-7(8H)-one]",ΔTm 30,CK2a2,-1.8 °C
same,ΔTm 30,DRAK1,4.0 °C
same,ΔTm 30,DAPK1,-0.7 °C
same,ΔTm 30,CDKL1,1.6 °C
same,ΔTm 30,JNK2,4.3 °C
same,ΔTm 30,OSR1,2.3 °C
same,ΔTm 30,MAP3K5,13.1 °C
same,ΔTm 30,EphA4,3.5 °C
same,ΔTm 30,AurA,8.6 °C
same,ΔTm 30,MELK,7.8 °C
"Cc1cccc(-c2ccc(-c3cc4cnc(Nc5cc(C(F)(F)F)ccc5C)nc4n(CCCCN)c3=O)c(Cl)c2)n1 [compound 28, 8-(4-Aminobutyl)-6-(2-chloro-4-(6-methylpyridin-2-yl)phenyl)-2-((2-methyl-5-(trifluoromethyl)phenyl)amino)pyrido[2,3-d]pyrimidin-7(8H)-one]",ΔTm 28,CK2a2,-4.2 °C
same,ΔTm 28,DRAK1,0.3 °C
same,ΔTm 28,DAPK1,-0.7 °C
same,ΔTm 28,CDKL1,0.7 °C
same,ΔTm 28,JNK2,0.0 °C
same,ΔTm 28,OSR1,0.1 °C
same,ΔTm 28,MAP3K5,12.2 °C
same,ΔTm 28,EphA4,3.4 °C
same,ΔTm 28,AurA,6.5 °C
same,ΔTm 28,MELK,1.8 °C
"Cc1cccc(-c2ccc(-c3cc4cnc(Nc5ccc(C)c(O)c5)nc4n(CCCCN)c3=O)c(Cl)c2)n1 [compound 32, 8-(4-Aminobutyl)-6-(2-chloro-4-(6-methylpyridin-2-yl)phenyl)-2-((3-hydroxy-4-methylphenyl)amino)pyrido[2,3-d]pyrimidin-7(8H)-one]",ΔTm 32,CK2a2,-1.6 °C
same,ΔTm 32,DRAK1,5.1 °C
same,ΔTm 32,DAPK1,-0.9 °C
same,ΔTm 32,CDKL1,1.9 °C
same,ΔTm 32,JNK2,3.3 °C
same,ΔTm 32,OSR1,3.1 °C
same,ΔTm 32,MAP3K5,12.7 °C
same,ΔTm 32,EphA4,4.6 °C
same,ΔTm 32,AurA,5.9 °C
same,ΔTm 32,MELK,7.2 °C
